Measurements from PMC10584882 (Communications Biology, 2023).
Where “and” joins values, the source holds several entries; their conditions need not be identical. Identical values can stand only once.

Experiments:
LC-HK2 cells = test: Cell viability assay (CellTiter-Glo), LC-HK2; format: cell-based, human; conditions: LC-HK2, 72 h, replicates
Experimental: (§1) VERO-CCL81 was seeded in 96-well plates at a density of 1.5×10^4 cells/well, while LC-HK2 was seeded at a density of 3×10^4 cells/well, following 24 h incubation at 37 °C and 5% CO2 atmosphere. The cell culture media was replaced by serial dilutions of the compounds and the cell viability was determined 72 h post-treatment via CellTiter-Glo® Luminescent Cell Viability Assay (Promega), following the manufacturer’s instructions. Luminescent signal was recorded using a CLARIOstar multi-mode microplate reader (BMG Labtech, Germany). Graphs were generated using GraphPad Prism software version 8.0 (La Jolla, CA, USA, www.graphpad.com). Samples deemed to be technical failures and extreme outlier were removed.

CatL [1] = target: T1, CatL (Homo sapiens, UniProt P07711); test: Reversibility of covalent cathepsin inhibition (CatL, 60 min incubation); format: biochemical; conditions: 1 nM CatL, 1–80 nM inhibitor, 37 °C
T1 construct: made in house
T1 sequence (P07711 114-333): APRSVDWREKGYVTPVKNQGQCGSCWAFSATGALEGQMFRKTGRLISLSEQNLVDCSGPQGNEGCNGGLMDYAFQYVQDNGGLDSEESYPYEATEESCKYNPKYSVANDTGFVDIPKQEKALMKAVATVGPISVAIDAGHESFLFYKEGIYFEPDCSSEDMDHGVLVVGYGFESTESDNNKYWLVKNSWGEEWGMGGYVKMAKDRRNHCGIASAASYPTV
Description: We observed no increase in relative inhibition over time, thus concluding that the covalent bond between cathepsins and inhibitors is reversible.

CatL [2] = target: T1, CatL; test: Cathepsin inhibition test, CatL; format: biochemical; conditions: for Residual activity (Vi/V0): Fig. S3 panel b, single replicates
VERO-CCL81 cells = test: Cell viability assay (CellTiter-Glo), VERO-CCL81; format: cell-based; conditions: for Cell viability (% control): VERO CCL81, 72 h, replicates of experiments 1 and 2
Experimental: as §1

SARS-CoV-2 = test: Viral loading determination via RT-qPCR in LC-HK2 cells; format: cell-based; conditions: for Viral titer (% control): LC-HK2, RT-qPCR

CCCC[C@H](NC(=O)[C@H](CC(C)C)NC(=O)OCc1ccccc1)C(O)S(=O)(=O)[O-].[Na+] (some centres unmarked) [S-Calpeptin]
Cell viability (% control) (LC-HK2 cells; 0.0024 μM): 103.56 % control and 100.06 % control and 97.94 % control
Cell viability (% control) (LC-HK2 cells; 0.0049 μM): 100.56 % control and 101.52 % control and 96.13 % control
Cell viability (% control) (LC-HK2 cells; 0.0098 μM): 103.39 % control and 98.29 % control and 93.66 % control
Cell viability (% control) (LC-HK2 cells; 0.0195 μM): 101 % control and 102.2 % control and 97.31 % control
Cell viability (% control) (LC-HK2 cells; 0.0391 μM): 101.11 % control and 100.82 % control and 93.61 % control
Cell viability (% control) (LC-HK2 cells; 0.0781 μM): 95.36 % control and 95.43 % control and 89.73 % control and 94.91 % control and 94.76 % control and 87.15 % control
Cell viability (% control) (LC-HK2 cells; 0.1563 μM): 94.91 % control and 93.6 % control and 89 % control and 98.33 % control and 105.61 % control and 98.34 % control
Cell viability (% control) (LC-HK2 cells; 0.3125 μM): 97.71 % control and 92.81 % control and 89.53 % control and 99.96 % control and 101.2 % control
Cell viability (% control) (LC-HK2 cells; 0.625 μM): 99.27 % control and 95.19 % control and 89.18 % control and 98.53 % control and 102.88 % control and 100.16 % control
Cell viability (% control) (LC-HK2 cells; 1.25 μM): 94.67 % control and 92.11 % control and 87.48 % control and 95.09 % control and 95.4 % control and 94.79 % control
Cell viability (% control) (LC-HK2 cells; 2.5 μM): 94.03 % control and 92.7 % control and 88.37 % control and 89.79 % control and 94.67 % control and 93.9 % control
Cell viability (% control) (LC-HK2 cells; 5 μM): 91.36 % control and 87.95 % control and 86.97 % control and 86.06 % control and 93.58 % control and 92 % control
Cell viability (% control) (LC-HK2 cells; 10 μM): 83.09 % control and 79.77 % control and 75 % control and 90.37 % control and 93.49 % control and 89.11 % control
Cell viability (% control) (LC-HK2 cells; 100 μM): 73.52 % control and 81.33 % control and 73.97 % control
reversibility of covalent bond to cathepsin (CatL [1]): reversible
Residual activity (Vi/V0) (CatL [2]; inhibitor 0.010 nM, 10 pM): 1.426 and 1.05 and 1.025 and 1.009 and 1.011 and 1.078 and 1.028 and 1.031 and 1.036 and 1.201
Residual activity (Vi/V0) (CatL [2]; inhibitor 0.018 nM, 18 pM): 1.349 and 1.024 and 1.036 and 0.8728 and 0.9988 and 0.9818 (2×) and 1.042 and 1.062 and 1.149
Residual activity (Vi/V0) (CatL [2]; inhibitor 0.032 nM, 32 pM): 1.453 and 0.9142 and 1.1 and 1.088 and 1.079 and 0.9024 and 0.9567 and 1.006 and 0.9803 and 1.2694
Residual activity (Vi/V0) (CatL [2]; inhibitor 0.058 nM, 58 pM): 1.377 and 1.0256 and 0.8968 and 0.9231 and 0.8862 and 0.9577 and 1.001 and 1.006 and 1.052 and 1.254
Residual activity (Vi/V0) (CatL [2]; inhibitor 0.105 nM, 0.000105 µM): 1.053 and 0.914 and 0.68 and 0.6925 and 0.711 and 0.8569 and 0.909 and 1.0072 and 0.8377 and 1.071
Residual activity (Vi/V0) (CatL [2]; inhibitor 0.189 nM, 0.000189 µM): 0.9886 and 0.7158 and 0.5095 and 0.5746 and 0.5088 and 0.7745 and 0.7818 and 0.8193 and 0.7501 and 1.054
Residual activity (Vi/V0) (CatL [2]; inhibitor 0.340 nM, 0.00034 µM): 0.5984 and 0.5107 and 0.3117 and 0.3431 and 0.2757 and 0.5388 and 0.5659 and 0.5589 and 0.4129 and 0.6122
Residual activity (Vi/V0) (CatL [2]; inhibitor 0.612 nM, 0.000612 µM): 0.6669 and 0.3311 and 0.2683 and 0.3139 and 0.2767 and 0.6359 and 0.6301 and 0.62 and 0.515 and 0.8313
Residual activity (Vi/V0) (CatL [2]; inhibitor 1.103 nM, 0.001103 µM): 0.5114 and 0.2133 and 0.2013 and 0.1965 and 0.1624 and 0.4143 and 0.3924 and 0.3311 and 0.3975 and 0.5758
Residual activity (Vi/V0) (CatL [2]; inhibitor 1.985 nM, 0.001985 µM): 0.3099 and 0.145 and 0.1192 and 0.1108 and 0.1144 and 0.3088 and 0.318 and 0.3267 and 0.2219 and 0.2968
Ki (CatL [2]; mean with standard deviation and 95% confidence interval, pH 5.5, 37 °C): 0.148 nM
Cell viability (% control) (VERO-CCL81 cells; 0.0781 μM): 99.91 % control and 99.99 % control and 93.43 % control
Cell viability (% control) (VERO-CCL81 cells; 0.1563 μM): 101.27 % control and 99.33 % control and 91.02 % control
Cell viability (% control) (VERO-CCL81 cells; 0.3125 μM): 98.12 % control and 96.79 % control and 88.9 % control and 104.51 % control and 93.11 % control and 88.49 % control
Cell viability (% control) (VERO-CCL81 cells; 0.625 μM): 102.02 % control and 99.32 % control and 91.53 % control and 106.07 % control and 99.18 % control and 92.52 % control
Cell viability (% control) (VERO-CCL81 cells; 1.25 μM): 101.8 % control and 101.21 % control and 92.78 % control and 102.28 % control and 98.11 % control and 94.97 % control
Cell viability (% control) (VERO-CCL81 cells; 2.5 μM): 103.7 % control and 100.66 % control and 93.92 % control and 107.86 % control and 99.28 % control and 84.04 % control
Cell viability (% control) (VERO-CCL81 cells; 5 μM): 103.66 % control and 103.11 % control and 94.78 % control and 109.88 % control and 106.46 % control and 91.66 % control
Cell viability (% control) (VERO-CCL81 cells; 10 μM): 95.16 % control and 96.86 % control and 93.25 % control and 107.42 % control and 101.38 % control and 83.78 % control
cytotoxicity (in words) (VERO-CCL81 cells; VERO-CCL81, 72 h): no cytotoxicity up to low micromolar concentrations
EC50 (SARS-CoV-2; LC-HK2, RT-qPCR, 72 h post-infection, read-out: Viral titer EC50): 630 nM
Viral titer (% control) (SARS-CoV-2; 0.0006 μM): 100 % control
Viral titer (% control) (SARS-CoV-2; 0.0012 μM): 100 % control
Viral titer (% control) (SARS-CoV-2; 0.0024 μM): 100 % control
Viral titer (% control) (SARS-CoV-2; 0.0049 μM): 100 % control
Viral titer (% control) (SARS-CoV-2; 0.0098 μM): 100 % control
Viral titer (% control) (SARS-CoV-2; 0.0195 μM): 100 % control
Viral titer (% control) (SARS-CoV-2; 0.0391 μM): 100 % control
Viral titer (% control) (SARS-CoV-2; 0.0781 μM): 100 % control
Viral titer (% control) (SARS-CoV-2; 0.1563 μM): 100 % control
Viral titer (% control) (SARS-CoV-2; 0.3125 μM, listed as S-Calpepin): 56.49 % control and 49.6 % control
Viral titer (% control) (SARS-CoV-2; 0.625 μM, listed as S-Calpepin): 69.04 % control and 44.94 % control
Viral titer (% control) (SARS-CoV-2; 1.25 μM, listed as S-Calpepin): 38.67 % control and 33.45 % control
Viral titer (% control) (SARS-CoV-2; 2.5 μM, listed as S-Calpepin): 33.13 % control and 30.16 % control
Viral titer (% control) (SARS-CoV-2; 100 μM): 0 % control
